Experimental data taken from patent publication US20150087622A1, “NEW METHOD OF USE OF A PESTICIDE” (SYNGENTA PARTICIPATIONS AG, priority 2012, published 2015).
Read-outs that look alike come from different tables or passages of the source.

Assays:
Diabrotica balteata = assay: Transovarial effects on Diabrotica balteata adults fed on sprayed bean plants (% egg mortality); assay type: in vivo; details: for mortality at 10 ppm / mortality at 25 ppm / mortality at 50 ppm: Diabrotica balteata
Description: The following IGRs in Table 1 were tested for their transovarial effects on Diabrotica balteata by observing percentage egg mortality.
Bean plants (Phaseolus vulgaris, var. Amata) were treated in an automatic spray chamber (ARO-1) with around 500 l/ha. After drying of the spray deposits, plants were placed in gauze cages and infested with newly hatched (0-24 h old) Diabrotica balteata adults. After seven days, treated plants were removed and replaced by non-treated plants. From day seven to day 38 eggs were collected in three-day intervals, counted and checked on number of hatched larvae (% egg mortality). Percentage egg mortality was calculated as the number of unhatched eggs per total number of eggs laid.

Colorado potato beetle = details: cited from earlier work
Spodoptera frugiperda = assay: Foliar spray application on cotton, larval mortality of Spodoptera frugiperda; assay type: in vivo; details: 4 DAT (days after treatment)
Source text: For example on both Spodoptera frugiperda and Plutella xylostella similar activities were obtained for the same rates: […]

[1] = egg laying period 1, read-out: % egg mortality: on egg laying period 1
[2] = egg laying period 2, read-out: % egg mortality: on egg laying period 2
[3] = egg laying period 3, read-out: % egg mortality: on egg laying period 3
[4] = egg laying period 4, read-out: % egg mortality: on egg laying period 4
[5] = egg laying period 5, read-out: % egg mortality: on egg laying period 5
[6] = egg laying period 6, read-out: % egg mortality: on egg laying period 6
[7] = egg laying period 7, read-out: % egg mortality: on egg laying period 7
[8] = egg laying period 8, read-out: % egg mortality: on egg laying period 8
[9] = egg laying period 9, read-out: % egg mortality: on egg laying period 9
[10] = egg laying period 10, read-out: % egg mortality: on egg laying period 10
[11] = egg laying period 11, read-out: % egg mortality: on egg laying period 11
[12] = egg laying period 12, read-out: % egg mortality: on egg laying period 12

Structure (SMILES): O=C(NC(=O)c1c(F)cccc1F)Nc1ccc(OC(F)(F)C(F)OC(F)(F)F)c(Cl)c1 (single isomer, unassigned; (+)) [Rimon, (+)-I-[3-chloro-4-(1,1,2-trifluoro-2-trifluoromethoxyethoxy)phenyl]-3-(2,6-difluorobenzoyl)urea]
- total number of sterilised (unhatched) eggs, considered over the whole test period (Diabrotica balteata; 5 g AI ha^-1): ≈ 25%
- total number of sterilised (unhatched) eggs, considered over the whole test period (Diabrotica balteata; 12.5 g AI ha^-1): ≈ 25%
- total number of sterilised (unhatched) eggs, considered over the whole test period (Diabrotica balteata; 25 g AI ha^-1): ≈ 90%
- days of effect (egg hatch inhibition) after a single foliar treatment (Diabrotica balteata; 50 g AI/ha during adult feeding on the crop plant): up to 21 days
- mortality at 10 ppm (Diabrotica balteata; [1]): 100%
- mortality at 10 ppm (Diabrotica balteata; [2]): 100%
- mortality at 10 ppm (Diabrotica balteata; [3]): 99%
- mortality at 10 ppm (Diabrotica balteata; [4]): 50%
- mortality at 10 ppm (Diabrotica balteata; [5]): 10%
- mortality at 10 ppm (Diabrotica balteata; [6]): 13%
- mortality at 10 ppm (Diabrotica balteata; [7]): 10%
- mortality at 10 ppm (Diabrotica balteata; [8]): 11%
- mortality at 10 ppm (Diabrotica balteata; [9]): 18%
- mortality at 10 ppm (Diabrotica balteata; [10]): 9%
- mortality at 10 ppm (Diabrotica balteata; [11]): 9%
- mortality at 10 ppm (Diabrotica balteata; [12]): 12%
- mortality at 25 ppm (Diabrotica balteata; [1]): 100%
- mortality at 25 ppm (Diabrotica balteata; [2]): 100%
- mortality at 25 ppm (Diabrotica balteata; [3]): 100%
- mortality at 25 ppm (Diabrotica balteata; [4]): 93%
- mortality at 25 ppm (Diabrotica balteata; [6]): 25%
- mortality at 25 ppm (Diabrotica balteata; [7]): 14%
- mortality at 25 ppm (Diabrotica balteata; [9]): 22%
- mortality at 25 ppm (Diabrotica balteata; [10]): 7%
- mortality at 25 ppm (Diabrotica balteata; [11]): 0%
- mortality at 25 ppm (Diabrotica balteata; [12]): 4%
- mortality at 50 ppm (Diabrotica balteata; [2]): 100%
- mortality at 50 ppm (Diabrotica balteata; [3]): 100%
- mortality at 50 ppm (Diabrotica balteata; [4]): 100%
- mortality at 50 ppm (Diabrotica balteata; [5]): 100%
- mortality at 50 ppm (Diabrotica balteata; [6]): 100%
- mortality at 50 ppm (Diabrotica balteata; [7]): 100%
- mortality at 50 ppm (Diabrotica balteata; [8]): 100%
- mortality at 50 ppm (Diabrotica balteata; [9]): 92%
- mortality at 50 ppm (Diabrotica balteata; [10]): 29%
- mortality at 50 ppm (Diabrotica balteata; [11]): 96%
- mortality at 50 ppm (Diabrotica balteata; [12]): 41%
- Spray interval (Diabrotica balteata; Rate 5 g AI/ha): 7 days
- Spray interval (Diabrotica balteata; Rate 12.5 g AI/ha): 10 days
- Spray interval (Diabrotica balteata; Rate 25 g AI/ha): 21 days
- rank for transovarial activity on Diabrotica balteata (Diabrotica balteata; among the IGRs tested): by far the best compound
- Transovarial effects on treated adults of Diabrotica balteata (Diabrotica balteata; at the used dose rates): Transovarial effects can be observed
- ability to economically stop egg hatching in Colorado potato beetle (Colorado potato beetle; 25 g AI ha^-1 (Cutler et al.)): insufficient
- viability of Colorado potato beetle eggs (Colorado potato beetle; adults feeding on novaluron-treated potato leaves, 87 g AI ha^-1 (Alyokhin et al.)): reduced viability
- time of feeding on untreated leaves after which the effect reverses (Colorado potato beetle; after 87 g AI ha^-1 (Alyokhin et al.)): 48 to 96 h
- LC50 (Spodoptera frugiperda): LC50 = 1.1 ppm
